Several values for one entry are separate records, joined by “and”; a condition that tells them apart may be missing. Equal values may be shown once.
How the values were obtained:
Type in all cases: physicochemical
[1] = Quantitative solubility of melatonin in ethanol/HFA 152a (filtered supersaturated solutions, HPLC)
Experimental: Data was obtained at 5° C. (see FIG. 15 and FIG. 16) and T=20° C. (see FIG. 17 and FIG. 18) and presented as % w/w, μg/50 μl and μg/63 μl (see also Table 4).

[2] = Visual solubility of formulations packaged in glass bottles; conditions: for Visual appearance in glass bottles: 5° C.
[3] = Melatonin drug residual (total can content) after storage at 40° C. and 75% relative humidity; conditions: for Initial Melatonin t = 0 (can content) / Initial Melatonin t = 0, mean: 100 μg/50 μL
Experimental: Drug residual measurements (total can content) was determined following storage at 40° C. and 75% relative humidity.
Each canister type was packaged with metering valve 1908 (Aptar™, 50 μl) (MDI batches OZ211003/RJ/A and OZ211003/RJ/C) and metering valves 1904 (Bespak™ 50 μl, with dip tube 1906) (MDI batches OZ211003/RJ/B and OZ211003/RJ/D).

[4] = 6% w/w ethanol, HFA 152a, Plain Aluminum 14 ml canister, Metering Valve 1904 (with dip tube 1906)
[5] = 6% w/w ethanol, HFA 152a, Plain Aluminum 14 ml canister, Metering Valve 1908
[6] = 6% w/w ethanol, HFA 152a, Plasma Coated 14 ml canister, Metering Valve 1904 (with dip tube 1906)
[7] = 6% w/w ethanol, HFA 152a, Plasma coated 14 ml canister, Metering Valve 1908
[8] = Plain Aluminum canister, Metering Valve 1904 (with dip tube 1906), t = 1 month @ 40° C./75% RH, stored Inverted
[9] = Plain Aluminum canister, Metering Valve 1904 (with dip tube 1906), t = 1 month @ 40° C./75% RH, stored Upright
[10] = Plain Aluminum canister, Metering Valve 1904 (with dip tube 1906), t = 3 month @ 40° C./75% RH, stored Inverted (valve down)
[11] = Plain Aluminum canister, Metering Valve 1904 (with dip tube 1906), t = 3 month @ 40° C./75% RH, stored Upright (valve up)
[12] = Plain Aluminum canister, Metering Valve 1908, t = 1 month @ 40° C./75% RH, stored Inverted
[13] = Plain Aluminum canister, Metering Valve 1908, t = 1 month @ 40° C./75% RH, stored Upright
[14] = Plain Aluminum canister, Metering Valve 1908, t = 3 month @ 40° C./75% RH, stored Inverted (valve down)
[15] = Plain Aluminum canister, Metering Valve 1908, t = 3 month @ 40° C./75% RH, stored Upright (valve up)
[16] = Plasma Coated canister, Metering Valve 1904 (with dip tube 1906), t = 1 month @ 40° C./75% RH, stored Inverted
[17] = Plasma Coated canister, Metering Valve 1904 (with dip tube 1906), t = 1 month @ 40° C./75% RH, stored Upright
[18] = Plasma Coated canister, Metering Valve 1904 (with dip tube 1906), t = 3 month @ 40° C./75% RH, stored Inverted (valve down)
[19] = Plasma Coated canister, Metering Valve 1904 (with dip tube 1906), t = 3 month @ 40° C./75% RH, stored Upright (valve up)
[20] = Plasma coated canister, Metering Valve 1908, t = 1 month @ 40° C./75% RH, stored Inverted
[21] = Plasma coated canister, Metering Valve 1908, t = 1 month @ 40° C./75% RH, stored Upright
[22] = Plasma coated canister, Metering Valve 1908, t = 3 month @ 40° C./75% RH, stored Inverted (valve down)
[23] = Plasma coated canister, Metering Valve 1908, t = 3 month @ 40° C./75% RH, stored Upright (valve up)

COc1ccc2[nH]cc(CCNC(C)=O)c2c1 [Melatonin]
*Melatonin μg per 56 mg (63 μl) ([1]; 0% w/w ethanol, T = 5° C.): 8 μg per 56 mg (63 μl) | Melatonin %(w/w) in filtered supersaturated HFA152a solution ([1]; 0% w/w ethanol, T = 5° C.): 0.01 %(w/w) | Melatonin μg per 44 mg (50 μl) ([1]; 0% w/w ethanol, T = 5° C.): 6 μg per 44 mg (50 μl) | *Melatonin μg per 56 mg (63 μl) ([1]; 0% w/w ethanol, T = 20° C.): 9 μg per 56 mg (63 μl) | Melatonin %(w/w) in filtered supersaturated HFA152a solution ([1]; 0% w/w ethanol, T = 20° C.): 0.02 %(w/w) | Melatonin μg per 44 mg (50 μl) ([1]; 0% w/w ethanol, T = 20° C.): 7 μg per 44 mg (50 μl) | *Melatonin μg per 56 mg (63 μl) ([1]; 5% w/w ethanol, T = 5° C.): 121 μg per 56 mg (63 μl) | Melatonin %(w/w) in filtered supersaturated HFA152a solution ([1]; 5% w/w ethanol, T = 5° C.): 0.22 %(w/w) | Melatonin μg per 44 mg (50 μl) ([1]; 5% w/w ethanol, T = 5° C.): 95 μg per 44 mg (50 μl) | *Melatonin μg per 56 mg (63 μl) ([1]; 5% w/w ethanol, T = 20° C.): 159 μg per 56 mg (63 μl) | Melatonin %(w/w) in filtered supersaturated HFA152a solution ([1]; 5% w/w ethanol, T = 20° C.): 0.28 %(w/w) | Melatonin μg per 44 mg (50 μl) ([1]; 5% w/w ethanol, T = 20° C.): 125 μg per 44 mg (50 μl) | *Melatonin μg per 56 mg (63 μl) ([1]; 8% w/w ethanol, T = 5° C.): 270 μg per 56 mg (63 μl) | Melatonin %(w/w) in filtered supersaturated HFA152a solution ([1]; 8% w/w ethanol, T = 5° C.): 0.48 %(w/w) | Melatonin μg per 44 mg (50 μl) ([1]; 8% w/w ethanol, T = 5° C.): 212 μg per 44 mg (50 μl) | *Melatonin μg per 56 mg (63 μl) ([1]; 8% w/w ethanol, T = 20° C.): 395 μg per 56 mg (63 μl) | Melatonin %(w/w) in filtered supersaturated HFA152a solution ([1]; 8% w/w ethanol, T = 20° C.): 0.70 %(w/w) | Melatonin μg per 44 mg (50 μl) ([1]; 8% w/w ethanol, T = 20° C.): 310 μg per 44 mg (50 μl) | *Melatonin μg per 56 mg (63 μl) ([1]; 10% w/w ethanol, T = 5° C.): 339 μg per 56 mg (63 μl) | Melatonin %(w/w) in filtered supersaturated HFA152a solution ([1]; 10% w/w ethanol, T = 5° C.): 0.60 %(w/w) | Melatonin μg per 44 mg (50 μl) ([1]; 10% w/w ethanol, T = 5° C.): 266 μg per 44 mg (50 μl) | *Melatonin μg per 56 mg (63 μl) ([1]; 10% w/w ethanol, T = 20° C.): 456 μg per 56 mg (63 μl) | Melatonin %(w/w) in filtered supersaturated HFA152a solution ([1]; 10% w/w ethanol, T = 20° C.): 0.82 %(w/w) | Melatonin μg per 44 mg (50 μl) ([1]; 10% w/w ethanol, T = 20° C.): 359 μg per 44 mg (50 μl) | *Melatonin μg per 56 mg (63 μl) ([1]; 15% w/w ethanol, T = 5° C.): 588 μg per 56 mg (63 μl) | Melatonin %(w/w) in filtered supersaturated HFA152a solution ([1]; 15% w/w ethanol, T = 5° C.): 1.05 %(w/w) | Melatonin μg per 44 mg (50 μl) ([1]; 15% w/w ethanol, T = 5° C.): 462 μg per 44 mg (50 μl) | *Melatonin μg per 56 mg (63 μl) ([1]; 15% w/w ethanol, T = 20° C.): 817 μg per 56 mg (63 μl) | Melatonin %(w/w) in filtered supersaturated HFA152a solution ([1]; 15% w/w ethanol, T = 20° C.): 1.46 %(w/w) | Melatonin μg per 44 mg (50 μl) ([1]; 15% w/w ethanol, T = 20° C.): 642 μg per 44 mg (50 μl) | Visual solubility ([2]; 50 μg/50 μl in 5% ethanol and HFA 134a, T=5° C. and T=20° C.): confirmed visually | Visual solubility ([2]; 100 μg/50 μl (5% w/w ethanol), HFA 152a, 4° C. and 20° C.): soluble | Visual solubility in glass bottles ([2]; 100 μg/50 μl in 12% w/w ethanol and HFA 134a, T=5° C. and T=20° C.): confirmed visually | Visual appearance in glass bottles ([2]; 100 μg/50 μl, 6% w/w ethanol in HFA 152a): clear solutions | Visual appearance in glass bottles ([2]; 200 μg/50 μl, 8% w/w ethanol in HFA 152a): clear solutions | Visual solubility ([2]; 500 μg/50 μl (15% w/w ethanol), HFA 152a, 4° C. and 20° C.): soluble | Initial Melatonin t = 0 (can content) [3, 4]: 15408 µg and 15450 µg and 15897 µg | Initial Melatonin t = 0, mean [3, 4]: 15.6 mg | Initial Melatonin t = 0 (can content) [3, 5]: 16200 µg and 15676 µg and 15379 µg | Initial Melatonin t = 0, mean [3, 5]: 15.8 mg | Initial Melatonin t = 0 (can content) [3, 6]: 15417 µg and 15682 µg and 15292 µg | Initial Melatonin t = 0, mean [3, 6]: 15.5 mg | Initial Melatonin t = 0 (can content) [3, 7]: 15430 µg and 15517 µg and 15810 µg | Initial Melatonin t = 0, mean [3, 7]: 15.6 mg | Residual melatonin at 3-month ([3]; MDIs stored valve down): 93% to 96 | Residual Melatonin [3, 8]: 15162 µg and 14967 µg | Residual Melatonin % of t = 0 [3, 8]: 97 % of t = 0 | Residual Melatonin [3, 9]: 14959 µg and 15331 µg | Residual Melatonin % of t = 0 [3, 9]: 97 % of t = 0 | Residual Melatonin [3, 10]: 14652 µg and 14318 µg | Residual Melatonin % of t = 0 [3, 10]: 93 % of t = 0 | Residual Melatonin [3, 11]: 14721 µg and 14847 µg | Residual Melatonin % of t = 0 [3, 11]: 98 % of t = 0 | Residual Melatonin [3, 12]: 15171 µg and 15131 µg | Residual Melatonin % of t = 0 [3, 12]: 98 % of t = 0 | Residual Melatonin [3, 13]: 15403 µg and 15581 µg | Residual Melatonin % of t = 0 [3, 13]: 100 % of t = 0 | Residual Melatonin [3, 14]: 14920 µg and 14914 µg | Residual Melatonin % of t = 0 [3, 14]: 96 % of t = 0 | Residual Melatonin [3, 15]: 15600 µg and 15422 µg | Residual Melatonin % of t = 0 [3, 15]: 100 % of t = 0 | Residual Melatonin [3, 16]: 14872 µg and 14984 µg | Residual Melatonin % of t = 0 [3, 16]: 97 % of t = 0 | Residual Melatonin [3, 17]: 14944 µg and 15211 µg | Residual Melatonin % of t = 0 [3, 17]: 98 % of t = 0 | Residual Melatonin [3, 18]: 14634 µg and 14510 µg | Residual Melatonin % of t = 0 [3, 18]: 94 % of t = 0 | Residual Melatonin [3, 19]: 14805 µg and 14789 µg | Residual Melatonin % of t = 0 [3, 19]: 98 % of t = 0 | Residual Melatonin [3, 20]: 15024 µg and 14980 µg | Residual Melatonin % of t = 0 [3, 20]: 96 % of t = 0 | Residual Melatonin [3, 21]: 15578 µg and 15444 µg | Residual Melatonin % of t = 0 [3, 21]: 100 % of t = 0 | Residual Melatonin [3, 22]: 14661 µg and 14791 µg | Residual Melatonin % of t = 0 [3, 22]: 94 % of t = 0 | Residual Melatonin [3, 23]: 15461 µg and 15469 µg | Residual Melatonin % of t = 0 [3, 23]: 100 % of t = 0 | Residual melatonin at 1-month ([3]; all packaging and storage conditions, 40° C./75% RH): 96-98% | Residual melatonin at 3-month ([3]; stored valve up, both canister types, metering valve 1904 (Bespak with dip tube 1906)): 98% | Residual melatonin at 3-month ([3]; stored valve up, both canister types, metering valve 1908 (Aptar)): 100% | Initial time point residual, % of the target formulation ([3]; t = 0, 100 μg/50 μl, 6% w/w ethanol, HFA 152a): 97.5±1.7%

Reference: patent US20260102340A1, “Therapeutic Formulation” (1000739373 Ontario Ltd., priority 2022, published 2026)
